Source: US20240208912A1 (Mirati Therapeutics, Inc., priority 2021, published 2024)
Read-outs that look alike come from different tables or passages of the source.

Experiments:
[1] = tested on: HCT116 homozygous MTAP knockout cells; assay: Proliferation assay (CellTiter-Glo, 10 days) in HCT116 homozygous MTAP knockout cells; assay type: cell-based; settings: CellTiter-Glo after 10 days of treatment, read-out: Proliferation IC50 (nM) HCT116 MTAP_KO
Outline: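 CellTiter-Glo viability read on day 11 gives a 10-day IC50. Dosing began one day after seeding, with a 1:10 split into fresh drug-containing medium on day 6. Cells are HCT116 lacking both MTAP alleles via CRISPR/Cas9, run alongside the parental line.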

[2] = biological target: T1, PRMT5/MEP50 complex (Homo sapiens, UniProt O14744); assay: PRMT5:MEP50 HotSpot Assay (full-length histone H2A substrate, plus and minus MTA); assay type: biochemical; settings: IC50 + 2 μM MTA, in the presence of 2 μM MTA
T1 construct: purchased Reaction Biology Corporation
T1 sequence (O14744 2-637 limits assumed): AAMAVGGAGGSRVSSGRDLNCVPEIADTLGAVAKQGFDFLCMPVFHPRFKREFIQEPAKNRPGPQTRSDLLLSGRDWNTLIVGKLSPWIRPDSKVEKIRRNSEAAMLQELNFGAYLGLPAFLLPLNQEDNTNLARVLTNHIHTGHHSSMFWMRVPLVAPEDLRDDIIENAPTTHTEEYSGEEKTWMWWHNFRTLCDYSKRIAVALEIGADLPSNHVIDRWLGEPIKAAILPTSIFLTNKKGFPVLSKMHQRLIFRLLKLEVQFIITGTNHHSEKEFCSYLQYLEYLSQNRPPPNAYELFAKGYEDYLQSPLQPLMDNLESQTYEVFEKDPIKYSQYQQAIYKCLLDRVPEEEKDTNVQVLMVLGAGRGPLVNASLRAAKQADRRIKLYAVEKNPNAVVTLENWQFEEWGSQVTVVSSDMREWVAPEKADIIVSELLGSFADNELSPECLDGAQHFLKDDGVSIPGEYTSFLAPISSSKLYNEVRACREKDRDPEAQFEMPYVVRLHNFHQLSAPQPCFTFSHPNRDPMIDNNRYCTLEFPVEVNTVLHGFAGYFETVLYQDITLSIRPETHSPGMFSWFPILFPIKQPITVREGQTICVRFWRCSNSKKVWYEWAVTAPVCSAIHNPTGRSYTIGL
T1 sequence (Q9BQA1 2-342 partner limits assumed): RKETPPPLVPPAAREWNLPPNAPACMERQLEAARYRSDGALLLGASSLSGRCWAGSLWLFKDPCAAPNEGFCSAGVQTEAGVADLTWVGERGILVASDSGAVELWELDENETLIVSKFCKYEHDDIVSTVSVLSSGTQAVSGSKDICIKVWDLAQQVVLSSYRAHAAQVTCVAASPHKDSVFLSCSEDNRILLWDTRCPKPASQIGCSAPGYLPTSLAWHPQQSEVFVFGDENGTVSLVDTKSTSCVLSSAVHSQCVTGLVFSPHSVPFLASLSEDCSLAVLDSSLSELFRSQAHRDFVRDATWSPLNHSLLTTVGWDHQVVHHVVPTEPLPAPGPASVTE
Outline: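 Tritiated product on full-length recombinant H2A was counted by scintillation after the stopped reaction was captured on filter paper. Substrate is histone H2A; conditions include plus and minus MTA.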

[3] = tested on: PRMT5-dependent Symmetric Di-methyl Arginine signal in HCT116 homozygous MTAP Knockout cells; assay: SYM11 In-Cell Western in HCT116 homozygous MTAP knockout cells; assay type: cell-based
Description: HCT116 cells were genetically engineered to knock out the function of both MTAP alleles using a CRISPR/Cas9 system and an sgRNA targeting the MTAP gene. Following Cas9/MTAP sgRNA transduction, clones were screened to confirm that each allele of the MTAP gene had been inactivated (i.e., homozygous MTAP knock out) creating an MTAP-deficient cell.
(§1) Control samples were analyzed in parallel.
(§2) Briefly, on Day 0, 2,000 HCT116 parental or HCT116 homozygous MTAP knockout cells were seeded in 96 well plates in McCoy's 5A supplemented with 10% fetal bovine serum and pen/strep and the cells were incubated overnight at 37° C. plus 5% CO2. The following day, cells were treated with DMSO vehicle control or a dose response of PRMT5 inhibitors, and incubated at 37° C. plus 5% CO^2 for four days.
(§3) After 4 days of treatment, the cells were fixed by adding 50 μl of 4% paraformaldehyde solution to each well and the cells were incubated for 20 min at room temperature. The paraformaldehyde solution was removed, 150 μl of ice-cold methanol was added and the plate was placed −20° C. for 10 minutes. The methanol was removed, 150 μl of Odyssey Blocking buffer+0.05% Tween20 was added and the plate was incubated at room temperature with shaking for one hour.
(§4) The primary SYM11 antibody solution was removed by aspiration and the wells were washed three consecutive times with phosphate buffered saline containing 0.1% Tween-20 (PBST).
(§5) The secondary antibody solution was removed by aspiration and the wells were washed three consecutive times with PBST.
(§6) The SYM11 signal and the DRAQ5 signal were quantified using a Li-Cor Odyssey machine reading at […], respectively. The SYM11/DRAQ5 ratio was used to calculate the inhibition of Symmetric Dimethyl Arginine as percent of DMSO control.

[4] = tested on: PRMT5-dependent Symmetric Di-methyl Arginine signal in HCT116 parental cells; assay: SYM11 In-Cell Western in HCT116 parental cells; assay type: cell-based; settings: Homo sapiens, HCT-116, 96 h, read-out: In-cell-Western (SYM11) IC50 (nM) HCT216 parental
Description: as §1, §2, §3, §4, §5, §6

[5] = 4 days of treatment, SYM11/DRAQ5 ratio as percent of DMSO control, read-out: In-cell-Western (SYM11) IC50 (nM) HCT116 MTAP_KO
[6] = Homo sapiens, HCT-116, 96 h, 4 days of treatment, SYM11/DRAQ5 ratio as percent of DMSO control, read-out: In-cell-Western (SYM11) IC50 (nM) HCT116 MTAP_KO
[7] = HCT116 parental cells, 4 days of treatment, SYM11/DRAQ5 ratio as percent of DMSO control

| IC50 [1] [nM] | IC50 [2] [nM] | IC50 [3, 5] [nM] | IC50 ([1]; Homo sapiens, HCT-116, 240 h) [nM] | IC50 [3, 6] [nM] | Structure (SMILES) | IC50 [4] [nM] | IC50 ([3]; read-out: In-cell-Western (SYM11) IC50 (nM) HCT116 MTAP_KO, 4 days of treatment, SYM11/DRAQ5 ratio as percent of DMSO control) [nM] | IC50 [4, 7] [nM] |
| --- | --- | --- | --- | --- | --- | --- | --- | --- |
| 1300 | 2000 | 656 |  |  | Cc1cc(OC2CC2)c(C#N)c(-c2c(-c3cc(C)c4c(=O)[nH]nc(CN)c4c3)cnn2C)c1F (single isomer, unassigned) [Example 16-43, (P)-2-(4-(4-(aminomethyl)-8-methyl-1-oxo-1,2-dihydrophthalazin-6-yl)-1-methyl-1H-pyrazol-5-yl)-6-cyclopropoxy-3-fluoro-4-methylbenzonitrile] |  |  |  |
| 20 | 69.5 | 13 |  |  | Cc1cc(OC2CC2)c(C#N)c(-c2c(-c3cc(C)c4c(=O)[nH]nc(CN)c4c3)cnn2C)c1F (single isomer, unassigned) [Example 16-44, (M)-2-(4-(4-(aminomethyl)-8-methyl-1-oxo-1,2-dihydrophthalazin-6-yl)-1-methyl-1H-pyrazol-5-yl)-6-cyclopropoxy-3-fluoro-4-methylbenzonitrile] |  |  |  |
| 798 | 1970 | 282 |  |  | Cc1cc(-c2cnn(C)c2-c2c(F)c(Cl)cc(OC3CC3)c2C#N)cc2c(CN)n[nH]c(=O)c12 (single isomer, unassigned) [Example 16-45, (P)-2-[4-[4-(aminomethyl)-8-methyl-1-oxo-2H-phthalazin-6-yl]-2-methyl-pyrazol-3-yl]-4-chloro-6-(cyclopropoxy)-3-fluoro-benzonitrile] |  |  |  |
| 7 | 41.9 | 6 |  |  | Cc1cc(-c2cnn(C)c2-c2c(F)c(Cl)cc(OC3CC3)c2C#N)cc2c(CN)n[nH]c(=O)c12 (single isomer, unassigned) [Example 16-46, (M)-2-[4-[4-(aminomethyl)-8-methyl-1-oxo-2H-phthalazin-6-yl]-2-methyl-pyrazol-3-yl]-4-chloro-6-(cyclopropoxy)-3-fluoro-benzonitrile] |  |  |  |
| 706 | 261 | 6 |  |  | Cc1cc(-c2cnn(C)c2-c2c(C#N)cc3ccccc3c2Cl)cc2c(CN)n[nH]c(=O)c12 (single isomer, unassigned) [Example 16-51, (P)-3-[4-[4-(aminomethyl)-8-methyl-1-oxo-2H-phthalazin-6-yl]-2-methyl-pyrazol-3-yl]-4-chloro-naphthalene-2-carbonitrile] |  |  |  |
| 19 | 29.1 | 13 |  |  | Cc1cc(-c2cnn(C)c2-c2c(C#N)cc3ccccc3c2Cl)cc2c(CN)n[nH]c(=O)c12 (single isomer, unassigned) [Example 16-52, (M)-3-[4-[4-(aminomethyl)-8-methyl-1-oxo-2H-phthalazin-6-yl]-2-methyl-pyrazol-3-yl]-4-chloro-naphthalene-2-carbonitrile] |  |  |  |
| 859 | 341 | 437 |  |  | Cn1ncc(-c2cc(Cl)c3c(=O)[nH]nc(CN)c3c2)c1-c1c(C#N)cc2ccccc2c1Cl (single isomer, unassigned) [Example 16-63, (P)-3-[4-[4-(aminomethyl)-8-chloro-1-oxo-2H-phthalazin-6-yl]-2-methyl-pyrazol-3-yl]-4-chloro-naphthalene-2-carbonitrile] |  |  |  |
| 17 | 23.3 | 13 |  |  | Cn1ncc(-c2cc(Cl)c3c(=O)[nH]nc(CN)c3c2)c1-c1c(C#N)cc2ccccc2c1Cl (single isomer, unassigned) [Example 16-64, (M)-3-[4-[4-(aminomethyl)-8-chloro-1-oxo-2H-phthalazin-6-yl]-2-methyl-pyrazol-3-yl]-4-chloro-naphthalene-2-carbonitrile] |  |  |  |
|  | 2930 |  | 2870 | > 1000 | Cn1ncc(-c2ccc3c(=O)[nH]cc(CN)c3c2)c1-c1ccc2ccccc2c1C#N [Example 18-2, 2-[4-[4-(aminomethyl)-1-oxo-2H-isoquinolin-6-yl]-2-methyl-pyrazol-3-yl]naphthalene-1-carbonitrile] |  |  |  |

The next lines start with the molecule.

| Structure (SMILES) | IC50 [1] [nM] | IC50 [2] [nM] | IC50 [3, 5] [nM] | IC50 ([1]; Homo sapiens, HCT-116, 240 h) [nM] | IC50 [3, 6] [nM] | IC50 [4] [nM] | IC50 ([3]; read-out: In-cell-Western (SYM11) IC50 (nM) HCT116 MTAP_KO, 4 days of treatment, SYM11/DRAQ5 ratio as percent of DMSO control) [nM] | IC50 [4, 7] [nM] |
| --- | --- | --- | --- | --- | --- | --- | --- | --- |
| Cn1ncc(-c2ccc3c(=O)[nH]nc(CN)c3c2)c1-c1c(F)c(Cl)cc(OC2CC2)c1C#N [Example 4-230, 2-(4-(4-(aminomethyl)-1-oxo-1,2-dihydrophthalazin-6-yl)-1-methyl-1H-pyrazol-5-yl)-4-chloro-6-cyclopropoxy-3-fluorobenzonitrile] |  |  |  |  |  | > 1000 | 6 |  |
| CCn1cccc(-c2c(-c3ccc4c(=O)[nH]nc(CN)c4c3)cnn2C)c1=O [Example 4-255, 4-(aminomethyl)-6-(5-(1-ethy1-2-oxo-1,2-dihydropyridin-3-yl)-1-methyl-1H-pyrazol-4-yl)phthalazin-1(2H)-one] |  | 9620 |  | 1630 | 955 |  |  |  |
| Cn1ncc(-c2ccc3c(=O)[nH]nc(CN)c3c2)c1-c1sc2ccc(Cl)cc2c1C#N [Example 4-262, 2-[4-[4-(aminomethyl)-1-oxo-2H-phthalazin-6-yl]-2-methyl-pyrazol-3-yl]-5-chloro-benzothiophene-3-carbonitrile] |  | 108 |  | 281 | 98 |  |  |  |
| Cn1ncc(-c2ccc3c(=O)[nH]nc(CN)c3c2)c1-c1c(C#N)sc2ccccc12 [Example 4-266, 3-[4-[4-(aminomethyl)-1-oxo-2H-phthalazin-6-yl]-2-methyl-pyrazol-3-yl]benzothiophene-2-carbonitrile] |  | 507 |  | 312 | 324 |  |  |  |
| Cn1ncc(-c2ccc3c(=O)[nH]nc(CN)c3c2)c1-c1csc2cccc(=O)n12 [Example 4-267, 3-[4-[4-(aminomethyl)-1-oxo-2H-phthalazin-6-yl]-2-methyl-pyrazol-3-yl] thiazolo[3,2-a]pyridin-5-one] |  | 6140 |  | 10000 | 1000 |  |  |  |
| Cn1ncc(-c2cc(C(F)F)c3c(=O)[nH]nc(CN)c3c2)c1-c1sc2ccccc2c1C#N [Example 10-21, 2-[4-[4-(aminomethyl)-8-(difluoromethyl)-1-oxo-2H-phthalazin-6-yl]-2-methyl-pyrazol-3-yl]benzothiophene-3-carbonitrile] |  | 4.09 |  | 35 | 35 |  |  | > 1000 |
| Cn1ncc(-c2cc(Cl)c3c(=O)[nH]nc(CN)c3c2)c1-c1sc2ccccc2c1C#N [Example 10-22, 2-(4-(4-(aminomethyl)-8-chloro-1-oxo-1,2-dihydrophthalazin-6-yl)-1-methyl-1H-pyrazol-5-yl)benzo[b]thiophene-3-carbonitrile] |  | 86.8 |  | 52 | 17 |  |  |  |
| Cc1cc(-c2cnn(C)c2-c2sc3ccccc3c2C#N)cc2c(CN)n[nH]c(=O)c12 [Example 10-23, 2-[4-[4-(aminomethyl)-8-methyl-1-oxo-2H-phthalazin-6-yl]-2-methyl-pyrazol-3-yl]benzo-thiophene-3-carbonitrile] |  | 126 |  | 30 | 15 |  |  | > 1000 |
| Cn1ncc(-c2cc([C@@H]3CCCO3)c3c(=O)[nH]nc(CN)c3c2)c1-c1sc2ccccc2c1C#N [Example 15-3, (S)-2-(4-(4-(aminomethyl)-1-oxo-8-(THF-2-yl)-1,2-dihydrophthalazin-6-yl)-1-methyl-1H-pyrazol-5-yl)benzo[b]thiophene-3-carbonitrile] |  | 16.3 |  | 22 | 6 |  |  | 330 |
| COCc1cc(-c2cnn(C)c2-c2sc3ccccc3c2C#N)cc2c(CN)n[nH]c(=O)c12 [Example 15-5, 2-[4-[4-(aminomethyl)-8-(methoxymethyl)-1-oxo-2H-phthalazin-6-yl]-2-methyl-pyrazol-3-yl]benzothiophene-3-carbonitrile] |  |  |  | 23 | 5 |  |  | 595 |
